Assay results reported in PMC3919815, “Anti-Tumor Effects of Novel 5-O-Acyl Plumbagins Based on the Inhibition of Mammalian DNA Replicative Polymerase Activity” (PLoS ONE, 2014).
Like-named read-outs stand apart in the source and are kept apart here.

Columns and labels:
Rice pol λ = molecular target: T1, Rice pol λ (Oryza sativa subsp. japonica, UniProt Q67VC8); experiment: DNA polymerase activity inhibition; format: biochemical, rice (Oryza sativa L. cv. Nipponbare)
T1 construct: His6 (C); made in house; host or cells: E. coli
Description: Pol α was purified from calf thymus by immunoaffinity column chromatography as described by Tamai et al.. Recombinant rat pol β was purified from Escherichia coli JMpβ5 as described by Date et al.. The human pol γ catalytic gene was cloned into pFastBac. Histidine-tagged enzyme was expressed using the BACTO-BAC HT Baculovirus Expression System according to the manufacturer's instructions (Life Technologies, Frederick, MD, USA) and purified using ProBound resin (Invitrogen Japan, Tokyo Japan). Human pols δ and ε were purified by nuclear fractionation of human peripheral blood cancer cells (Molt-4) using the second subunit of pol δ and ε-conjugated affinity column chromatography, respectively. A truncated form of human pol η (residues 1–511) tagged with His6 at its C-terminal was expressed in E. coli cells and purified as described by Kusumoto et al.. A recombinant mouse pol ι tagged with His6 at its C-terminal was expressed and purified by Ni–NTA column chromatography. […]
The chemically synthesized 5-O-acyl plumbagins (2a–j) were dissolved in distilled dimethyl sulfoxide (DMSO) to various concentrations and sonicated for 30 s. […] Activity without inhibitor was considered 100%, and the relative activity was determined for each inhibitor concentration. […]

Calf primase of pol α = Calf primase of pol α (Bos taurus, UniProt A0A3Q1MF00); experiment: Other DNA metabolic enzyme assay; format: biochemical
Description: (§1) The activities of calf primase of pol α, T7 RNA polymerase, mouse inosine-5′-[…] (IMP) dehydrogenase (type II), T4 polynucleotide kinase, and bovine deoxyribonuclease I were measured in standard assays according to the manufacturer's specifications, as described by Tamiya-Koizumi et al., Nakayama and Saneyoshi, Mizushina et al., Soltis et al., and Lu and Sakaguchi, respectively.

[1] = molecular target: Mouse IMP dehydrogenase (type II) (Mus musculus, UniProt P24547); experiment: Other DNA metabolic enzyme assay; format: biochemical
Description: as §1

HT-29 solid tumors = experiment: In vivo anti-tumor assay; parameters: species or system nude mice
Description: Male BALB/c nu/nu mice at 5 week of age (18 g) were purchased from Japan SLC, Inc. (Shizuoka, Japan). Mice receiving standard laboratory chow and water ad libitum were acclimatized for 1 week before inoculation with cancer cells. For in vivo experiments, human colon HT-29 cells (1×10^7 cells/mouse) were subcutaneously injected into nude mice. Mice bearing solid tumors that had grown to approximately 100 mm^3 in volume (tumor volume = length×width×height) at 12 days after implantation were used for the assessment of anti-tumor effects. They were divided randomly into five groups (n = 6/group). One of the five groups was a control group injected with 0.1 mL of phosphate buffered saline (PBS) alone, and other groups were injected with vitamin K3 (3), juglone (4), C18:1-acyl juglone (5f), and C18:1-acyl plumbagin (2f) dissolved in PBS at a dose of 5 mg/kg. The above administrations all took place between days 12–39 subsequent to implantation. All mice were injected subcutaneously 14 times at […] with the compound and PBS alone (control). Tumor growth was measured at 1-day intervals for 40 days after implantation. At the end of the in vivo anti-tumor assay, some mice treated with the test compounds and PBS were independently examined to observe major organs such as lung, heart, spleen, stomach, liver, pancreas, kidney, intestine, and brain.

[2] = Stability under basic conditions (Triton B, UV-vis); format: physicochemical; conditions: 1 equivalent Triton B in 1,4-dioxane and MeOH, 1.1×10^−3 M, 25°C
Description: A 2.2×10^−2 M solution of Triton B in MeOH was added to a 2.2×10^−2 M solution of each sample in 1,4-dioxane. Then, the mixture was diluted with 1,4-dioxane to a concentration of 1.1×10^−3 M. Then, the stability of each compound was monitored by UV-vis spectroscopy. UV-vis spectra were measured at 25°C on a UV-vis spectrophotometer (JASCO V-650, Tokyo, Japan). For comparison, UV-vis spectra of 1.1×10^−3 M solution of C18:1-acyl plumbagin (2f), and C18:1-acyl juglone (5f) in 1,4-dioxane and MeOH (19/1, v/v) were measured.

mammalian pols = experiment: DNA polymerase activity inhibition, summary over the panel; format: biochemical
Description: Pol α was purified from calf thymus by immunoaffinity column chromatography as described by Tamai et al.. Recombinant rat pol β was purified from Escherichia coli JMpβ5 as described by Date et al.. The human pol γ catalytic gene was cloned into pFastBac. Histidine-tagged enzyme was expressed using the BACTO-BAC HT Baculovirus Expression System according to the manufacturer's instructions (Life Technologies, Frederick, MD, USA) and purified using ProBound resin (Invitrogen Japan, Tokyo Japan). Human pols δ and ε were purified by nuclear fractionation of human peripheral blood cancer cells (Molt-4) using the second subunit of pol δ and ε-conjugated affinity column chromatography, respectively. A truncated form of human pol η (residues 1–511) tagged with His6 at its C-terminal was expressed in E. coli cells and purified as described by Kusumoto et al.. A recombinant mouse pol ι tagged with His6 at its C-terminal was expressed and purified by Ni–NTA column chromatography. A truncated form of pol κ (residues 1–560) with 6× His-tags attached at the C-terminus was overexpressed in E. coli and purified as described by Ohashi et al.. Recombinant human His-pol λ was overexpressed and purified according to a method described by Shimazaki et al.. Recombinant human His-pol μ was overexpressed in E. coli BL21 and purified using Glutathione Sepharose 4B (GE Healthcare Bio-Science Corp., Piscataway, NJ, USA) column chromatography according to the method for pol λ preparation by Shimazaki et al.. Pol α from a higher plant, cauliflower, was purified from the inflorescence structure according to the methods outlined by Sakaguchi et al.. Recombinant rice (Oryza sativa L. cv. Nipponbare) pol λ tagged with His6 at the C-terminus was expressed in E. coli and purified as described by Uchiyama et al.. Calf TdT, Taq pol, T4 pol, T7 RNA polymerase, and T4 polynucleotide kinase were purchased from Takara Bio Inc. (Kyoto, Japan). The Klenow fragment of pol I from E. coli was purchased from Worthington Biochemical Corp. (Freehold, NJ, USA). Bovine pancreas deoxyribonuclease I was obtained from Stratagene Cloning Systems (La Jolla, CA, USA).
The reaction mixtures for calf pol α, rat pol β, plant pol α, and prokaryotic pols have been described previously, [35]; those for pol γ as well as pols δ and ε were previously described by Umeda et al. and Ogawa et al., respectively. Those for pols η, ι, and κ were the same as for pol α, and those for pols λ and μ were the same as for pol β. For the pol reactions, poly(dA)/oligo(dT)18 (A/T, 2/1) and dTTP were used as the DNA template-primer substrate and nucleotide (dNTP; 2′-deoxynucleoside-5′-triphosphate) substrate, respectively. For the TdT reactions, oligo(dT)18 (3′-OH) and dTTP were used as the DNA primer substrate and nucleotide substrate, respectively.
The chemically synthesized 5-O-acyl plumbagins (2a–j) were dissolved in distilled dimethyl sulfoxide (DMSO) to various concentrations and sonicated for 30 s. Subsequently, 4 µL aliquots were mixed with 16 µL of each enzyme (0.05 units) in 50 mM Tris-HCl at pH 7.5, containing 1 mM dithiothreitol, 50% glycerol (by vol), and 0.1 mM ethylenediaminetetraacetic acid and held at 0°C for 10 min. These inhibitor-enzyme mixtures in 8 µL volumes were next added to 16 µL of enzyme standard reaction mixture and incubated at 37°C for 60 min, except for Taq pol, which was incubated at 74°C for 60 min. Activity without inhibitor was considered 100%, and the relative activity was determined for each inhibitor concentration. One unit of pol activity was defined as the amount of each enzyme that catalyzed the incorporation of 1 nmol dTTP into synthetic DNA template primers in 60 min, at 37°C, and under standard reaction conditions, [35].

Sequence of Mouse IMP dehydrogenase (type II) (P24547 whole entry): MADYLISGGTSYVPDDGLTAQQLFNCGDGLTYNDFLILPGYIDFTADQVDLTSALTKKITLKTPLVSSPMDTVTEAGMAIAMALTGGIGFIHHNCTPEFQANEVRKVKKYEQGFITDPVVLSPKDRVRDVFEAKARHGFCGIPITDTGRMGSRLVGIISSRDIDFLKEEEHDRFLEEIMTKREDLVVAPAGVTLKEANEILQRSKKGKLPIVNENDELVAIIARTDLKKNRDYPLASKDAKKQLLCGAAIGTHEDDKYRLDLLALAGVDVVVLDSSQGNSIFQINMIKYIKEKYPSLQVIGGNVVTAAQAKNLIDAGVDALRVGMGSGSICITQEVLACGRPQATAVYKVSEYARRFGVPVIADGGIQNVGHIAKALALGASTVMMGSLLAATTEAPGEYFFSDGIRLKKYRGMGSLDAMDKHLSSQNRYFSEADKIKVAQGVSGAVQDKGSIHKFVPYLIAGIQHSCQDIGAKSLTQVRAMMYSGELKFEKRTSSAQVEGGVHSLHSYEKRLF
T1 sequence (Q67VC8 whole entry): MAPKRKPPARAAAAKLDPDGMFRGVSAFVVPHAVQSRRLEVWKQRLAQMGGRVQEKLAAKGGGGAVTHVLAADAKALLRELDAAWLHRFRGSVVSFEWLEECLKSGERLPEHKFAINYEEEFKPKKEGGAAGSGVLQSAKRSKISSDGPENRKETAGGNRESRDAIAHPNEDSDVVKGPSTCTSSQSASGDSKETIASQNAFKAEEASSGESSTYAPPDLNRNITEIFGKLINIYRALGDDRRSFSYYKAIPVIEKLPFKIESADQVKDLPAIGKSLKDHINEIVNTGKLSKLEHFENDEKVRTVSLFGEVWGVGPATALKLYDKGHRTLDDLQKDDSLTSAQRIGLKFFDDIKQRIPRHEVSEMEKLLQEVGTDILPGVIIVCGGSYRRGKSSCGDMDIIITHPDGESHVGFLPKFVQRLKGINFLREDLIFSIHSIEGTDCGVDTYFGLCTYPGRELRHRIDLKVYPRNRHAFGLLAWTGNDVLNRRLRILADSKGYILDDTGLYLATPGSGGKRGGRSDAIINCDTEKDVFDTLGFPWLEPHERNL
Sequence of Calf primase of pol α (A0AAA9THK8 entry or part of it): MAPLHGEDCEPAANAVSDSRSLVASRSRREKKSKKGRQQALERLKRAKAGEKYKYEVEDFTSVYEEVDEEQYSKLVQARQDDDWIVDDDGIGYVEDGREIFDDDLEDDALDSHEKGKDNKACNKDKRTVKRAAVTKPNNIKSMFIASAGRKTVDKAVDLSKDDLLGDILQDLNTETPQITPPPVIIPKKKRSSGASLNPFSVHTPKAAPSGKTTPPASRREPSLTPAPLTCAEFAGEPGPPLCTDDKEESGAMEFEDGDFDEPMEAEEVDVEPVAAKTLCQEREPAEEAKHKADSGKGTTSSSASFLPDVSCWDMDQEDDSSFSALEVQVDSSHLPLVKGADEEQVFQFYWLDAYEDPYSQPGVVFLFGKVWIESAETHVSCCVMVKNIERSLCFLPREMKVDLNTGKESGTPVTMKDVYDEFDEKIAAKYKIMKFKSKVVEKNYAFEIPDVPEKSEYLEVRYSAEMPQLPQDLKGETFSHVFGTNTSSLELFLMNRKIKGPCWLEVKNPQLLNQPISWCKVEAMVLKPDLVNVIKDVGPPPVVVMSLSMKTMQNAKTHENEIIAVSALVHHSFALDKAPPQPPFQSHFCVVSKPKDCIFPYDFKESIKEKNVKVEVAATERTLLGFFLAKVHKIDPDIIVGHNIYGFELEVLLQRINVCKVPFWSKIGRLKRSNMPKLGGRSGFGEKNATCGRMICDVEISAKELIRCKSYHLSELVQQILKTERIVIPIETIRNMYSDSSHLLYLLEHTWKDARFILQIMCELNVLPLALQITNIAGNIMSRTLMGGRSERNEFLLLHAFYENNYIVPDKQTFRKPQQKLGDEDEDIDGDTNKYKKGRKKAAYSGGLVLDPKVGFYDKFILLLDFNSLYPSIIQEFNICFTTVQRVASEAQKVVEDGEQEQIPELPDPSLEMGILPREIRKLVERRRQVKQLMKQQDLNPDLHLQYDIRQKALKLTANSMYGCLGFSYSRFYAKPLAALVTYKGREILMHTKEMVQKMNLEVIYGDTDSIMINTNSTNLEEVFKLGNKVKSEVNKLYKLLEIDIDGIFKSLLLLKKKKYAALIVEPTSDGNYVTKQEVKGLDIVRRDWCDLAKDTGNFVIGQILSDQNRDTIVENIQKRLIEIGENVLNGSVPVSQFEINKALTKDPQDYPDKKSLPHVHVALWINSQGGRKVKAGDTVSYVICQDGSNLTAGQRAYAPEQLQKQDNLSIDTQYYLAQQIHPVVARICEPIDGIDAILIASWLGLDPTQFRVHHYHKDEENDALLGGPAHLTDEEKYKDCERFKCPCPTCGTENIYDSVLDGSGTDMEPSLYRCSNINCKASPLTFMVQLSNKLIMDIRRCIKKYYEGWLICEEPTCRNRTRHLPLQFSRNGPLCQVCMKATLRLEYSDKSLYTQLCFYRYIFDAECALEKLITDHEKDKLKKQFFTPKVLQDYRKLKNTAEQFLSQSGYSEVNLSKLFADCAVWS
Sequence of Calf primase of pol α (A0JNF4 entry or part of it, further chain): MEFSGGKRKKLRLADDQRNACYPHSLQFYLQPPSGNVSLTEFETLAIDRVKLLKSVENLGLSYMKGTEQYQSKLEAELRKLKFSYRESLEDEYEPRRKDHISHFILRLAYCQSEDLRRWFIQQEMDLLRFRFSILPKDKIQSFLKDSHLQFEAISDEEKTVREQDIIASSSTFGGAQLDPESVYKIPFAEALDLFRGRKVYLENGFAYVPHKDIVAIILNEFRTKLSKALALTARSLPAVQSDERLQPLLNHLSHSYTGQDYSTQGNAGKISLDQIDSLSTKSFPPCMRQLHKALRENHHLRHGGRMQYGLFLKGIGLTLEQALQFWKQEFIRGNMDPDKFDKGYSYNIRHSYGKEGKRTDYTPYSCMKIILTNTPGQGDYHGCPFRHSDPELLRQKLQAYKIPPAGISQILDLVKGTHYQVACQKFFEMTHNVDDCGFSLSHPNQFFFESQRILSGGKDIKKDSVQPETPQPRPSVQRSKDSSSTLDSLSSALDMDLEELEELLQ
Sequence of Calf primase of pol α (A0A3Q1MF00 entry or part of it): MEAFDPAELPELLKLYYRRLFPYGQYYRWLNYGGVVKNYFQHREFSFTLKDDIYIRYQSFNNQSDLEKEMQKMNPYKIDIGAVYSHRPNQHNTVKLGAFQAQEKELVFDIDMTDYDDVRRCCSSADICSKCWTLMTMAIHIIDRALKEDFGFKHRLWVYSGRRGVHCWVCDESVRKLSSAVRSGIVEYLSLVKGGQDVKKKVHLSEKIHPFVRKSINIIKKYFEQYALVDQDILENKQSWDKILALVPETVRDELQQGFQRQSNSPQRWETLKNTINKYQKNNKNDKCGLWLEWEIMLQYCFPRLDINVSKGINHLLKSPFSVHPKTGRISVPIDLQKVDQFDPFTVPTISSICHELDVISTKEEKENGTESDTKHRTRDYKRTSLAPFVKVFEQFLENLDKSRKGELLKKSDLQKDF
Sequence of Calf primase of pol α (Q58D13 whole entry, further chain): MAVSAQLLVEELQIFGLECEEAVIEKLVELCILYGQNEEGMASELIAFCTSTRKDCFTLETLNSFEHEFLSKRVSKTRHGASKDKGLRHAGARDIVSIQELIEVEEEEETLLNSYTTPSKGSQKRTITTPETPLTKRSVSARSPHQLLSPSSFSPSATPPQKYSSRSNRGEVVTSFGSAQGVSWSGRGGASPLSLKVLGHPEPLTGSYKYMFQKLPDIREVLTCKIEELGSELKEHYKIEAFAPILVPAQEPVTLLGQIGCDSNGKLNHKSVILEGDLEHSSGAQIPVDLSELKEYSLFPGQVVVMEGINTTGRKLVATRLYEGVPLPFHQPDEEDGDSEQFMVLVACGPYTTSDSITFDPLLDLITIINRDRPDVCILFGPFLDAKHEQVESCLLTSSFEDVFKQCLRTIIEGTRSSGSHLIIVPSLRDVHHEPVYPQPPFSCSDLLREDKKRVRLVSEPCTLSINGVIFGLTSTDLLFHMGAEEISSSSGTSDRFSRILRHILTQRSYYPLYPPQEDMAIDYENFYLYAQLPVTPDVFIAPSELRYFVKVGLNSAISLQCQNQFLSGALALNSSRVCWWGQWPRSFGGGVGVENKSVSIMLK

## CCCCCCCC/C=C\CCCCCCCC(=O)Oc1cccc2c1C(=O)C=C(C)C2=O [2f, 5-O-oleoyl-2-methyl-1,4-naphthoquinone]
Rice pol λ
  effect on enzyme activity (in words): had no effect
Rice pol λ; 0.05 units enzyme
  IC50: > 100 µM
Calf primase of pol α
  effect on enzyme activity (in words): did not inhibit
Calf primase of pol α; 0.05 units enzyme
  IC50: > 100 µM
[1]
  effect on enzyme activity (in words): did not inhibit
[1]; 0.05 units enzyme
  IC50: > 100 µM
HT-29 solid tumors; 5 mg/kg, versus vitamin K3, juglone, C18:1-acyl juglone
  anti-tumor effect, fold stronger than the other compounds tested: > 3 fold
HT-29 solid tumors; at 40 days, 5 mg/kg subcutaneously in PBS, versus PBS control, n = 6
  decreased rates of tumor volume: 30.5%
[2]
  stability under basic conditions (UV spectra): Almost no changes in UV spectra
Mammalian pols
  inhibitory effect on A and B families of pols, fold stronger than on X and Y families: 1.5- to 2 fold
Mammalian pols; B family of pols, read-out: 50% inhibition dose
  IC50: 4.8 to 5.3 µM
Mammalian pols; X family of pols, read-out: 50% inhibition dose
  IC50: 9.2 to 10.6 µM
Mammalian pols; Y family of pols, read-out: 50% inhibition dose
  IC50: 7.6 to 8.2 µM
Mammalian pols; all of the mammalian pols (11 species), read-out: IC50 values
  IC50: 4.5 to 10.6 µM
Mammalian pols; data not shown
  influence of excess poly(rC) and BSA on pol inhibition: little or no influence
Mammalian pols; pols α, δ and ε, versus aphidicolin IC50 of ref 45
  pol inhibitory activity, fold more potent than aphidicolin: > 2 fold
